In brackets after ≈: the same amount, converted by molar mass.
Experiments:
[1] = Solid-state properties (hygroscopicity, stability, dissolution) stated in comparison with amorphous material and salts; assay type: physicochemical; conditions: solid material; for Hygroscopicity: comparison crystalline forms vs amorphous material
[2] = Solubility of tetrahydrate Form S3 in different solvents; assay type: physicochemical
[3] = assay type: physicochemical
Description: Preferably, the anhydrates or ansolvates according to the invention and especially the crystalline form A1 can be characterised, alternatively or additionally, by dynamic vapour sorption experiments. The results can be obtained by standard techniques as described in Rolf Hilfiker, ‘Polymorphism in the Pharmaceutical Industry’, Wiley-VCH. Weinheim 2006 (Chapter 9: Water Vapour Sorption, and references therein). […] Eur. criteria.
Preferably, the tetrasolvates according to the invention, more preferably the tetrahydrates according to the invention and especially the crystalline form S3 can be characterised, alternatively or additionally, by dynamic vapour sorption experiments. The results can be obtained by standard techniques as described in Rolf Hilfiker, ‘Polymorphism in the Pharmaceutical Industry’, Wiley-VCH. Weinheim 2006 (Chapter 9: Water Vapour Sorption, and references therein).
Dynamic Vapor Sorption measurements are preferably obtained on a SMS DVS Intrinsic system. The results are preferably obtained by standard techniques as described by Rolf Hilfiker “Polymorphism in the Pharmaceutical Industry” Wiley-VCH Weinheim 2006 (Chapter 9: Water Vapour Sorption, and references therein.) Approx. 2-10 mg of samples are preferably weighed into an Aluminium 100 μL pan and placed in the sample incubator of the DVS instrument with microbalance. A nitrogen overall flow rate of 200 mL/min (combined dry and humid stream) is preferably used for humidification. Water vapor sorption isotherms are preferably acquired at 25° C. in the range 0% relative humidity to 98% relative humidity mostly with 10% relative humidity steps. For all relative humidity steps, an equilibrium condition of dm/dt≦0.0005 wt %/min are preferably used, with a minimum relative humidity step time of 10 minutes and a maximum relative humidity step time of 360 minutes which is preferably used as a timeout if the dm/dt criterai mentioned above is not been reached.
A SMS DVS I system is used for the dynamic vapour experiments regarding crystalline form S3. The results have been obtained by standard techniques as described in Rolf Hilfiker, ‘Polymorphism in the Pharmaceutical Industry’, Wiley-VCH. Weinheim 2006 (Chapter 9: Water Vapour Sorption, and references therein). […] During the water adsorption cycle there is shown an assembly of water molecules (ca. 10 wt%) in the lattice at elevated rh. In the second desorption cycle there is a loss of this amount of water.
(§1) A SMS DVS Intrinsic is used for the dynamic vapour experiments. The results are obtained by standard techniques as described in Rolf Hilfiker, ‘Polymorphism in the Pharmaceutical Industry’, Wiley-VCH. Weinheim 2006 (Chapter 9: Water Vapour Sorption, and references therein). […] Upon water vapour adsorption, an assembly of water molecules in the lattice is observed, with a maximum weight gain of approx. 8 wt % at elevated rh. In the second desorption cycle a total mass loss of approx. 9.9 wt % is observed. For a Cilengitide Dihydrate Di-Methanolate, the calculated Methanol content equals 9.3 wt %.
as §1, with “6.4” for “8”, “9.2” for “9.9”, “Di-Ethanolate,” for “Di-Methanolate,”, “Ethanol” for “Methanol”, “12.5” for “9.3”

[4] = Slurry conversion and competitive slurry conversion in water, saline, buffer and other solvents; assay type: physicochemical; conditions: in the presence of aqueous based solvents (suspensions, wetted material), absence of methanol and/or ethanol
Procedure: a) Crystalline tetrasolvates according to the invention and especially crystalline forms S1 and S2, can be obtained by slurry conversion from form A1 in a Methanol/Water mixture (70 v %:30 v %) at 25° C. for 2 days stirring time and Ethanol/Water mixture (60 v %:40 v %) at 25° C. for 18 days stirring time, respectively. General procedure:
Approx. 500 mg of form A1 of Cilengitide are dispersed in 5 ml solvent at room temperature. The dispersion is stirred for the mentioned time by a magnetic stirrer and finally filtered.
Form A1 of Cilengitide can be obtained by slurry conversion from pseudopolymorphic forms (for example S1, S2, S3 or mixtures of these) in Water at 25° C. An increased temperature (50° C.) accelerates the conversion to form A1.
Approx. 10 g of a pseudopolymorphic form (for example S1, S2, S3 or mixtures of these) of Cilengitide are dispersed in 50 ml deionised water at room temperature. The dispersion is stirred for 24 h by a magnetic stirrer and finally filtered.
Also the pure form form A1 can be manufactured by competitive slurry conversion experiments with a mixture of a pseudopolymorphic form (for example S1, S2, S3 or mixtures of these) and A1 (1:1) in Acetone, Acetonitrile, Isopropanol, physiological NaCl solution, Phosphate buffer (pH 7.4) and 1:1 (v:v) mixtures of Acetone, Acetonitrile, Isopropanol with Water at RT (25° C.).
Approx. […]

[5] = Competitive slurry conversion of pseudopolymorphic form and form A1 (1:1) in Water/Methanol and Water/Ethanol mixtures; assay type: physicochemical; conditions: for Methanol in the mixture with Water leading to form S1: 1:1 pseudopolymorphic form + A1
Procedure: b) Additionally, crystalline tetrasolvates according invention and especially crystalline forms S1 and S2 can be manufactured by competitive slurry conversion experiments with a mixture of a pseudopolymorphic form (for example S1, S2, S3 or mixtures of these) with form A1 (1:1) in Water/Methanol and Water/Ethanol mixtures with different alcohol contents at different temperatures, respectively.
(§2) Approx. 20 mg of a pseudopolymorphic form (for example S1, S2, S3 or mixtures of these) and 20 mg of form A1 of Cilengitide are dispersed in 300 μl Water/alcohol mixture at 0° C. or room temperature (25° C.). The dispersion is stirred for 24 h and additionally for 3 weeks at RT (25° C.) (long-term experiment) by a magnetic stirrer and finally filtered
Approx. 20 mg of a pseudopolymorphic form (for example S1, S2, S3 or mixtures of these) and 20 mg of form A1 of Cilengitide are dispersed in 300 μl Water/alcohol mixture at 50° C. The dispersion is stirred for 24 h by a magnetic stirrer and finally filtered.
Additionally form A1 can be manufactured by competitive slurry conversion experiments with a mixture of a pseudopolymorphic form (for example S1, S2, S3 or mixtures of these) and form A1 (1:1) in Water/Methanol and Water/Ethanol mixtures with different alcohol contents at different temperatures. In the following table the conditions for the experiments leading to the pure form A1 are listed.
as §2, with “C.,” for “C. or”, “and 50° C.” for “(25° C.).”, “filtered.” for “filtered”

[6] = Conditioning of amorphous Cilengitide under methanol atmosphere; assay type: physicochemical; conditions: MeOH liquid phase 100 v %
Description: As still another example, conditioning of amorphous material of the compound according to formula I or hydrate forms under methanol atmosphere yielded crystalline solvates with 2 molecules methanol per molecule of the compound according to formula I.
Conditioning of amorphous Cilengitide (abbreviated: Cil; Cilengitide=Cyclo-(Arg-Gly-Asp-DPhe-NMeVal) under methanol atmosphere yielded a solvate with 2 molecules methanol per molecule Cilengitide.

[7] = Methanol vapour sorption (DVS, hydrate form to form S1); assay type: physicochemical
Procedure: In the respective dynamic vapor sorption experiments discussed in more detail herein using methanol vapor at 98% relative saturation for the Dihydrate-dimethanolate/crystalline form S1 at 25° C. starting with the tetrahydrate a mass gain of 9% has been obtained. This is in good agreement with the above shown results for the tetramethanolate (calculated 108.5%, i.e. 8.5% of mass gain).
Preferably, the tetrasolvates according to the invention, more preferably the Dihydrate-dimethanolate, the Dihydrate-methanolate, the Dihydrate-monoethanolate, the Dimethanolate and/or the desolvates thereof, and especially the crystalline form S1 can be characterised, alternatively or additionally, by dynamic vapour experiments using water vapour and/or methanol vapour. The results can be obtained by standard techniques as described in Rolf Hilfiker, ‘Polymorphism in the Pharmaceutical Industry’, Wiley-VCH. Weinheim 2006 (Chapter 9: Water Vapour Sorption, and references therein).
Upon water vapour adsorption, an assembly of water molecules in the lattice is observed, with a maximum weight gain of approx. 8 wt % at elevated rh. In the second desorption cycle a total mass loss of approx. 9.9 wt % is observed. For a Dihydrate Di-Methanolate of the compound of formula I, the calculated Methanol content equals 9.3 wt %. […] Methanol Vapour Sorption Isotherm (25° C.) of a hydrate form to form S1 (SMS DVS Advantage) FIG. 14.
Thus, crystalline form S1 is a crystalline Methanol solvate form or a mixed water/methanol solvate form, preferably selected from the Dihydrate-methanolate, the Dihydrate-monoethanolate, the Dimethanolate and/or the desolvates thereof, which can be obtained e.g. via Methanol Vapour Sorption, preferably via Methanol Vapour Sorption starting with a hydrate structure, such as the hydrates according to the invention and especially the tetrahydrate according to the invention, i.e crystalline form S3. […]

[8] = 50° C. for 1 day, table of b579
[9] = 50° C. for 1 day, table of b595
[10] = water vapour sorption, 25° C., listed as S1

CC(C)[C@H]1C(=O)N[C@@H](CCCNC(=N)N)C(=O)NCC(=O)N[C@@H](CC(=O)O)C(=O)N[C@H](Cc2ccccc2)C(=O)N1C [amorphous material, cyclo-(Arg-Gly-Asp-DPhe-NMe-Val)]
Hygroscopicity ([1]; listed as amorphous forms): unfavourably hygroscopic | Hygroscopicity ([1]; listed as amorphous solid material): very high hygroscopicity | Physical and/or chemical (solid state) stability ([1]; comparison crystalline forms vs amorphous phase): low stability

CC(C)[C@H]1C(=O)N[C@@H](CCCN=C(N)N)C(=O)NCC(=O)N[C@@H](CC(=O)O)C(=O)N[C@H](Cc2ccccc2)C(=O)N1C [crystalline form S3, cyclo-(Arg-Gly-Asp-DPhe-NMe-Val)]
solubility ([2]; solvent H2O): 21.6 mg/mL (≈ 36.7 mM) | solubility ([2]; solvent H2O/Acetone (1:1)): 22.7 mg/mL (≈ 38.6 mM) | solubility ([2]; solvent H2O/Acetonitrile (1:1)): 24.3 mg/mL (≈ 41.3 mM) | solubility ([2]; solvent H2O/EtOH (1:1)): 13 mg/mL (≈ 22.1 mM) | solubility ([2]; solvent H2O/MeOH (1:1)): 12.8 mg/mL (≈ 21.7 mM) | solubility ([2]; solvent H2O/iPrOH (1:1)): 22.9 mg/mL (≈ 38.9 mM) | solubility ([2]; solvent buffer pH 7.4): 24.4 mg/mL (≈ 41.4 mM) | solubility ([2]; solvent physiological NaCl solution): 21.1 mg/mL (≈ 35.8 mM)

cyclo-(Arg-Gly-Asp-DPhe-NMe-Val) [crystalline form A1]
Physical stability of the crystal form versus relative humidity [3]: physical stability of the crystal form throughout the entire relative humidity range (0-98%) | Hygroscopicity classification ([3]; acc. to Ph. Eur. criteria, water vapour sorption 25° C.): non-hygroscopic | Water uptake levels ([3]; up to 98% relative humidity, 25° C.): small | Formation or conversion to a hydrate ([3]; water vapour sorption up to 98% relative humidity): No formation or conversion to a hydrate is observed | Thermodynamic stability of the form [4]: thermodynamically stable form | Ethanol in the mixture with Water leading to pure form A1 ([5]; 0° C. for 1 day): 0-10 v % | Methanol in the mixture with Water leading to pure form A1 ([5]; 0° C. for 1 day): 0 v % | Ethanol in the mixture with Water leading to form A1 (no pseudopolymorphic form obtained) [5, 8]: 90-100 v % | Methanol in the mixture with Water leading to form A1 (no pseudopolymorphic form obtained) [5, 8]: 90-100 v % | Ethanol in the mixture with Water leading to pure form A1 [5, 9]: 0-80 v % | Methanol in the mixture with Water leading to pure form A1 [5, 9]: 0-70 v % | Ethanol in the mixture with Water leading to pure form A1 ([5]; RT for 3 weeks): 0-20 v % | Methanol in the mixture with Water leading to pure form A1 ([5]; RT for 3 weeks): 0-40 v % | Ethanol in the mixture with Water leading to pure form A1 ([5]; RT for 1 day): 0-30 v % | Methanol in the mixture with Water leading to pure form A1 ([5]; RT for 1 day): 0-50 v %

cyclo-(Arg-Gly-Asp-DPhe-NMe-Val) [crystalline form S1]
H2O KF [6]: 0.3 wt % | MeOH HS-GC [6]: 10.0 wt % | Σ TG [6]: 10.4 wt % | H2O KF ([6]; per 1 mol Cil): 0.1 mol | MeOH HS-GC ([6]; per 1 mol Cil): 2.1 mol | Maximum weight gain upon water vapour adsorption ([3]; elevated rh, 25° C., listed as S1): approx. 8 wt % | Mass loss in the first desorption cycle [3, 10]: approx. 8 wt % | Total mass loss in the second desorption cycle [3, 10]: approx. 9.9 wt % | Thermodynamic stability of the form ([7]; atmosphere of 100% Methanol vapour): thermodynamically stable form | Methanol taken up by the sample ([7]; elevated Methanol partial pressure, starting with a hydrate structure): approx. 9 wt % | Mass gain ([7]; methanol vapor at 98% relative saturation, 25° C., starting with the tetrahydrate): 9% | Methanol in the mixture with Water leading to form S1 ([5]; 0° C. for 1 day): 40-100 v % | Methanol in the mixture with Water leading to form S1 ([5]; RT for 3 weeks): 60-100 v % | Methanol in the mixture with Water leading to form S1 ([5]; RT for 1 day): 60-100 v %

Reference: patent publication US8765684B2, “Solid materials of {[(2S,5R,8S,11S)-5-benzyl-11-(3-guanidino-propyl)-8-isopropyl-7-methyl-3,6,9,12,15-pentaoxo-1,4,7,10,13-pentaaza-cyclopentadec-2-yl]-acetic acid} and methods for obtaining them” (Merck Patent GmbH, priority 2009, dated 2014)
